Key:
[1] = system: CYP1A2; experiment: CYP induction; assay type: in vitro ADME; conditions: clinically relevant concentrations
[2] = biological target: MRP4 (Homo sapiens, UniProt O15439); experiment: Transporter inhibition; assay type: in vitro ADME; conditions: clinically relevant concentrations
[3] = Food effect study: safety and tolerability; assay type: in vivo, human; conditions: fed and fasted
Experimental: Plasma samples were collected pre-dose and at predetermined time intervals up to 48 hours after dosing. Atogepant plasma concentrations were determined using a validated LC-MS/MS assay and the pharmacokinetic (PK) parameters were calculated using WinNonlin. A linear mixed-effects model with sequence, study intervention, and period as fixed effects, and participant nested within sequence as a random effect was used to compare the natural logarithm transformed values of atogepant PK parameters AUC0-t, AUC0-inf, and Cmax. Safety was monitored via ECGs, vital signs, clinical labs, and adverse events.

[4] = biological target: P-gp (Homo sapiens, UniProt P08183); experiment: Transporter inhibition; assay type: in vitro ADME; conditions: clinically relevant concentrations
P-gp, sequence (P08183 whole entry): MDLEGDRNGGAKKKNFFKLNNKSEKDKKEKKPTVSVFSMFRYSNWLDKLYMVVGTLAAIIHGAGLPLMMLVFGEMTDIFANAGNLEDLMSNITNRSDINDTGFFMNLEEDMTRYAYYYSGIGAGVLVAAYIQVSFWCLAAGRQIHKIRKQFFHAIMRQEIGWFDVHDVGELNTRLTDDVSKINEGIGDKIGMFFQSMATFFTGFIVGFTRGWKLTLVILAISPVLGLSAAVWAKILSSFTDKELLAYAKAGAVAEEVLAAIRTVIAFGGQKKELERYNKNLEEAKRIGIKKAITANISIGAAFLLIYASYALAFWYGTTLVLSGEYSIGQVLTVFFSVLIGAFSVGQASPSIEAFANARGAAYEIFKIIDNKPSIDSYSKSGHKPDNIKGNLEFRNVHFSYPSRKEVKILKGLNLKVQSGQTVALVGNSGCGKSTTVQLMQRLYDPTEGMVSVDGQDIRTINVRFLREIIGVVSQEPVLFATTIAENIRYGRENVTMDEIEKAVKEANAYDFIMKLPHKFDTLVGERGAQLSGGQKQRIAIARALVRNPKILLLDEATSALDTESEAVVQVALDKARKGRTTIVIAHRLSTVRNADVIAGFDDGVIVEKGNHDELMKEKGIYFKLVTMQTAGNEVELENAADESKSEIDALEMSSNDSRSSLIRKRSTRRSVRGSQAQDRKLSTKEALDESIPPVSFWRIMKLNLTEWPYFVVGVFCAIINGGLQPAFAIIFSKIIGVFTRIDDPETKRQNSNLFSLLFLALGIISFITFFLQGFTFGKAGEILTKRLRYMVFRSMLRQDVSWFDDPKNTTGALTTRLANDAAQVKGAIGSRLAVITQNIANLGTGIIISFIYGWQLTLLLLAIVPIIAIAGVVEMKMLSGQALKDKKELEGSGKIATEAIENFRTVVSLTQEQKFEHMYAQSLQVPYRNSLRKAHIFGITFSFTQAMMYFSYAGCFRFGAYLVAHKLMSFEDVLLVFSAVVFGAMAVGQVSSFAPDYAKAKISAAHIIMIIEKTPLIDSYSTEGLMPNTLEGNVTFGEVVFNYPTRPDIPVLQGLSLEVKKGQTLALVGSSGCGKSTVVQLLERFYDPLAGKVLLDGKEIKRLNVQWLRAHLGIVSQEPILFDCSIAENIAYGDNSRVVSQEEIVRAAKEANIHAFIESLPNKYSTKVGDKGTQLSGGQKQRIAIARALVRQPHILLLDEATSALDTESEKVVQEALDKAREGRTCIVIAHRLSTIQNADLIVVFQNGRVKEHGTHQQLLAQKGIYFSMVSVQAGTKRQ

[5] = biological target: OATP1B1 (Homo sapiens, UniProt Q9Y6L6); experiment: Transporter substrate; assay type: in vitro ADME
OATP1B1, sequence (Q9Y6L6 whole entry): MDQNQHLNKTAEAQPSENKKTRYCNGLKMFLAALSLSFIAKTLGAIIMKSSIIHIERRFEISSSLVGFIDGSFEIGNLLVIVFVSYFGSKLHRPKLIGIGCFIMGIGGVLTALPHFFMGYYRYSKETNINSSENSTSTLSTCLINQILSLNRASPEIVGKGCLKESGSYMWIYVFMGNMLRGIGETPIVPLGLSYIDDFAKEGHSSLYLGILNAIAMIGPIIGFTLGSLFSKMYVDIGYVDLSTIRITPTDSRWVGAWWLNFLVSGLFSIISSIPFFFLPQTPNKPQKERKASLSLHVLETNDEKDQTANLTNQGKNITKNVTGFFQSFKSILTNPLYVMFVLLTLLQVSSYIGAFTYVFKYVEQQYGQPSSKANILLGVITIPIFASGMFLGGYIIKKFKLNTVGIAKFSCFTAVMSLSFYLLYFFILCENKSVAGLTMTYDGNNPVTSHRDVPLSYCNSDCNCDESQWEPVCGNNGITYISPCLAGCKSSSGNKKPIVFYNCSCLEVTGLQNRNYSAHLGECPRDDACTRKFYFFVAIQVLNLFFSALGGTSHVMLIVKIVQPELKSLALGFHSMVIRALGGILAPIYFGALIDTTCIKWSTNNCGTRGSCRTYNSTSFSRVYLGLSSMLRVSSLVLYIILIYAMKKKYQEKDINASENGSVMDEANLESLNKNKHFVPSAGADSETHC

[6] = Atogepant-esomeprazole interaction study: safety; assay type: in vivo, human; conditions: atogepant 60 mg alone or with esomeprazole magnesium 40 mg
Experimental: A phase 1, open-label, 2-intervention, single-sequence, nonrandomized, crossover, drug-drug interaction study was conducted to evaluate the effects of multiple-dose esomeprazole magnesium 40 mg on pharmacokinetics (PK) and safety of co-administered single-dose atogepant 60 mg in healthy adults.

[7] = system: patients with episodic migraine; experiment: Study 2 (NCT02848326): preventive treatment of episodic migraine, efficacy; assay type: in vivo, human
Experimental: The studies enrolled patients with at least a 1-year history of migraine with or without aura, according to the International Classification of Headache Disorders (ICHD-3) diagnostic criteria. In Study 1 (NCT03777059), 910 patients were randomized 1:1:1:1 to receive atogepant 10 mg (N=222), atogepant 30 mg (N=230), atogepant 60 mg (N=235), or placebo (N=223), once daily for 12 weeks. In Study 2 (NCT02848326), 652 patients were randomized 1:2:2:2 to receive atogepant 10 mg (N=94), atogepant 30 mg (N=185), atogepant 60 mg (N=187), or placebo (N=186), once daily for 12 weeks. In both studies, patients were allowed to use acute headache treatments (i.e., triptans, ergotamine derivatives, NSAIDs, acetaminophen, and opioids) as needed. The use of a concomitant medication that acts on the CGRP pathway was not permitted for either acute or preventive treatment of migraine. The studies excluded patients with myocardial infarction, stroke, or transient ischemic attacks within six months prior to screening. The primary efficacy endpoint was the change from baseline in mean monthly migraine days across the 12-week treatment period.

[8] = system: CYP2B6; experiment: CYP induction; assay type: in vitro ADME; conditions: clinically relevant concentrations
[9] = Atogepant-quinidine gluconate (P-gp inhibition) drug interaction study: atogepant PK; assay type: in vivo, human
Experimental: A phase 1, single-center, single-sequence, open-label, 2-intervention, drug-drug interaction study was conducted to evaluate the effects of P-glycoprotein (P-gp) inhibition by quinidine gluconate on pharmacokinetics (PK) and safety of atogepant. In this study, healthy adults received atogepant 60 mg on day 1, quinidine gluconate 324 mg twice daily on Day 8, quinidine gluconate 648 mg twice-daily on days 9-12, and atogepant 60 mg co-administered on day 11. Plasma samples were collected on days 1 and 11.
Atogepant PK parameters calculated were peak plasma concentration (Cmax); time to Cmax (tmax); and area under plasma concentration—time curve from time 0 to time t (AUC0-t) and infinity (AUC0-∞). PK parameters of atogepant co-administered with quinidine gluconate vs. atogepant administered alone were compared using a mixed-effects model. Statistical significance was achieved if 90% confidence intervals (Cis) for least squares geometric mean ratios (GMRs) of PK parameter values for atogepant co-administered with quinidine gluconate to atogepant administered alone were within 80%-125%. Safety assessments included clinical laboratory values, vital signs, electrocardiograms, and […] adverse events (TEAEs).

[10] = Study 2, atogepant 10 mg once daily
[11] = Study 2, atogepant 30 mg once daily
[12] = Study 2, atogepant 60 mg once daily
[13] = co-administered with quinidine gluconate

MRP4, sequence (O15439 whole entry): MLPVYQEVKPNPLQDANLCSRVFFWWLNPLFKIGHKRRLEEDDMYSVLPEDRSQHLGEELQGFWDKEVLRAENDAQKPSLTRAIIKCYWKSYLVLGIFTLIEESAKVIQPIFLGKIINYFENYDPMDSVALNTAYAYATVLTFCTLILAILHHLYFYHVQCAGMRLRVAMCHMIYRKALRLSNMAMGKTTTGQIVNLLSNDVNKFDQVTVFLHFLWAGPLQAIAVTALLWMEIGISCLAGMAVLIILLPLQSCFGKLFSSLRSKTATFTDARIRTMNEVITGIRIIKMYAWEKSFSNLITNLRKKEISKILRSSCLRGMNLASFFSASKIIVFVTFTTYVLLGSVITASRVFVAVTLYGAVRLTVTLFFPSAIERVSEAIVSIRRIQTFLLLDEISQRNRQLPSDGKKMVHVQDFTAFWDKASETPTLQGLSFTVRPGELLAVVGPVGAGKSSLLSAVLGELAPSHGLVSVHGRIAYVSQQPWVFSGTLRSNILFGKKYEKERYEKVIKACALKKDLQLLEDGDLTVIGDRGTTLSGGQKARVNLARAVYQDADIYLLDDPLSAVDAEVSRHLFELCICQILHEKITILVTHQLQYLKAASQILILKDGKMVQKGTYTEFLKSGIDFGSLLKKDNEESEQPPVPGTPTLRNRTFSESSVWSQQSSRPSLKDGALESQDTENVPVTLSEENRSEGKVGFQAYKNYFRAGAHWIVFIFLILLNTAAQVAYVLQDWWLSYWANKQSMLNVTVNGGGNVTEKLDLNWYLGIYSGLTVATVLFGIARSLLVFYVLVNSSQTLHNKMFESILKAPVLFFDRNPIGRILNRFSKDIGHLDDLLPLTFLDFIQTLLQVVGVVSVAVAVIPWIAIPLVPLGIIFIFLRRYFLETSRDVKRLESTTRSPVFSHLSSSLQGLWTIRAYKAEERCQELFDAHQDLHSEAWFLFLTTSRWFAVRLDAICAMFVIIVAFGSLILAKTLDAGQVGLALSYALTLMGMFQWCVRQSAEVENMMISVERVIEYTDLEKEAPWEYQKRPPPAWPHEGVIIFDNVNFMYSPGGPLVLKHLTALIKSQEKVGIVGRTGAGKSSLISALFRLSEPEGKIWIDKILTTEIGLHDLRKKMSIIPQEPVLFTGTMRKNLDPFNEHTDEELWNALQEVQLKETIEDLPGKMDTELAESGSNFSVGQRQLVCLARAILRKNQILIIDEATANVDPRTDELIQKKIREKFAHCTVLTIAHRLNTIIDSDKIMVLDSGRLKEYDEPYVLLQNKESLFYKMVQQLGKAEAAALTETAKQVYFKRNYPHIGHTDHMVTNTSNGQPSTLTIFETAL

C[C@@H]1[C@H](c2c(F)ccc(F)c2F)C[C@H](NC(=O)c2cnc3c(c2)C[C@@]2(C3)C(=O)Nc3ncccc32)C(=O)N1CC(F)(F)F [atogepant, (3′S)-N-[(3S,5S,6R)-6-methyl-2-oxo-1-(2,2,2-trifluoroethyl)-5-(2,3,6-trifluorophenyl)piperidin-3-yl]-2′-oxo-1′,2′,5,7-tetrahydrospiro[cyclopenta[b]pyridine-6,3′-pyrrolo[2,3-b]pyridine]-3-carboxamide]
induction of CYP1A2 [1]: not an inducer | inhibition of MRP4 [2]: not an inhibitor | participants with TEAEs considered related to study intervention ([3]; overall): 15% | participants with arthralgia ([3]; overall): 10.0% | participants with back pain ([3]; overall): 10.0% | participants with treatment emergent AEs (TEAEs) ([3]; overall): 35.0% | safety and tolerability ([3]; single doses of 60-mg IR formulation): safe and well-tolerated | inhibition of P-gp [4]: not an inhibitor | substrate of OATP1B1 [5]: substrate | safety and tolerability [6]: safe and tolerated | Monthly Headache Days across 12 weeks, difference from placebo [7, 10]: −1.4 | Monthly Headache Days across 12 weeks, mean change from baseline [7, 10]: −4.3 | Monthly Migraine Days (MMD) across 12 weeks, difference from placebo [7, 10]: −1.1 | Monthly Migraine Days (MMD) across 12 weeks, mean change from baseline [7, 10]: −4.0 | Monthly Headache Days across 12 weeks, difference from placebo [7, 11]: −1.2 | Monthly Headache Days across 12 weeks, mean change from baseline [7, 11]: −4.2 | Monthly Migraine Days (MMD) across 12 weeks, difference from placebo [7, 11]: −0.9 | Monthly Migraine Days (MMD) across 12 weeks, mean change from baseline [7, 11]: −3.8 | Monthly Headache Days across 12 weeks, difference from placebo [7, 12]: −0.9 | Monthly Headache Days across 12 weeks, mean change from baseline [7, 12]: −3.9 | Monthly Migraine Days (MMD) across 12 weeks, difference from placebo [7, 12]: −0.7 | Monthly Migraine Days (MMD) across 12 weeks, mean change from baseline [7, 12]: −3.6 | induction of CYP2B6 [8]: not an inducer | AUC increase [9, 13]: approximately 25% | Cmax increase [9, 13]: 4.4% | Tmax ([9]; human, plasma, with or without quinidine gluconate, read-out: atogepant median tmax): 1.5 h

From US12350259B2, “Methods of treating migraine” (Allergan Pharmaceuticals International Limited, priority 2021, dated 2025)
